Measurements as given in PubChem BioAssay AID2060487 (Molecular Pharmacology Branch, DTP, NCI, 2025).

System: 997537-175-T-J1-PDC complex spheroid viability
Test: Anticancer human tumor 997537-175-T-J1-PDC patient-derived colon adenocarcinoma cell line growth inhibition [GQUAD]
Conditions: for IC50: curve of first compound; for viability, T/C: stronger effect = lower value
Outline: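 Tumor cells were grown as complex spheroids with HUVEC endothelial cells and mesenchymal stem cells as stroma. G-quadruplex stabilizers were combined with targeted agents over half-log dilutions from near the clinical Cmax, or from 10 microM.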

[1] = second compound 0.0316 µM, first compound 0.0316 µM
[2] = second compound 0.0316 µM, first compound 0.1 µM
[3] = second compound 0.0316 µM, first compound 0.316 µM
[4] = second compound 0.0316 µM, first compound 1 µM
[5] = second compound 0.0316 µM, first compound 3.16 µM
[6] = second compound 0.0316 µM, first compound 10 µM
[7] = second compound 0.1 µM, first compound 0.0316 µM
[8] = second compound 0.1 µM, first compound 0.1 µM
[9] = second compound 0.1 µM, first compound 0.316 µM
[10] = second compound 0.1 µM, first compound 1 µM
[11] = second compound 0.1 µM, first compound 3.16 µM
[12] = second compound 0.1 µM, first compound 10 µM
[13] = second compound 0.316 µM, first compound 0.0316 µM
[14] = second compound 0.316 µM, first compound 0.1 µM
[15] = second compound 0.316 µM, first compound 0.316 µM
[16] = second compound 0.316 µM, first compound 1 µM
[17] = second compound 0.316 µM, first compound 3.16 µM
[18] = second compound 0.316 µM, first compound 10 µM
[19] = second compound 1 µM, first compound 0.0316 µM
[20] = second compound 1 µM, first compound 0.1 µM
[21] = second compound 1 µM, first compound 0.316 µM
[22] = second compound 1 µM, first compound 1 µM
[23] = second compound 1 µM, first compound 3.16 µM
[24] = second compound 1 µM, first compound 10 µM
[25] = second compound 3.16 µM, first compound 0.0316 µM
[26] = second compound 3.16 µM, first compound 0.1 µM
[27] = second compound 3.16 µM, first compound 0.316 µM
[28] = second compound 3.16 µM, first compound 1 µM
[29] = second compound 3.16 µM, first compound 3.16 µM
[30] = second compound 3.16 µM, first compound 10 µM
[31] = second compound 10 µM, first compound 0.0316 µM
[32] = second compound 10 µM, first compound 0.1 µM
[33] = second compound 10 µM, first compound 0.316 µM
[34] = second compound 10 µM, first compound 1 µM
[35] = second compound 10 µM, first compound 3.16 µM
[36] = second compound 10 µM, first compound 10 µM
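Further: spheroids exposed to the agents for 7 days.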
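Wherever viability, T/C is given: 100% = DMSO vehicle control viability.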

`C=CCn1c(=O)c2cnc(Nc3ccc(N4CCN(C)CC4)cc3)nc2n1-c1cccc(C(C)(C)O)n1` + Cc1cnc(CNC(=O)c2c(=O)c3ccc(N4CCCN(C)CC4)nc3n3c2sc2ccccc23)cn1 was tested, and the IC50 (second compound 0.0316 µM) was 1.87 µM, the IC50 (second compound 0.1 µM) was 2.73 µM and the IC50 (second compound 0.316 µM) was 2.55 µM. For the same molecule, the IC50 (second compound 1 µM) was 7.65 µM, the IC50 (second compound 3.16 µM) was > 10 µM and the IC50 (second compound 10 µM) was 8.48 µM. The viability, T/C [1] was 105%, the viability, T/C [2] was 76.5% and the viability, T/C [3] was 99%. It also gave a viability, T/C [4] of 70.5%, a viability, T/C [5] of 32.8% and a viability, T/C [6] of 20.4%. The viability, T/C [7] was 105%, the viability, T/C [8] was 104% and the viability, T/C [9] was 98.3%. For the same molecule, the viability, T/C [10] was 71.2%, the viability, T/C [11] was 48.6% and the viability, T/C [12] was 30.4%. For the same molecule, the viability, T/C [13] was 89%, the viability, T/C [14] was 94.2% and the viability, T/C [15] was 91.3%. The viability, T/C [16] was 74%, the viability, T/C [17] was 44.8% and the viability, T/C [18] was 38.1%. The viability, T/C [19] was 80.5%, the viability, T/C [20] was 99.8% and the viability, T/C [21] was 112%. It also gave a viability, T/C [22] of 61.1%, a viability, T/C [23] of 76% and a viability, T/C [24] of 43.2%. It also gave a viability, T/C [25] of 63.1%, a viability, T/C [26] of 98.4% and a viability, T/C [27] of 96%. It also gave a viability, T/C [28] of 107%, a viability, T/C [29] of 75.2% and a viability, T/C [30] of 50.6%. The viability, T/C [31] was 73.8%, the viability, T/C [32] was 99.3% and the viability, T/C [33] was 87.2%. For the same molecule, the viability, T/C [34] was 87%, the viability, T/C [35] was 79.8% and the viability, T/C [36] was 44.8%.
For `CC1COCCN1c1cc(-c2ccnn2C)c2ccnc(-c3ccn[nH]3)c2n1` (stereo unspecified) + Cc1cnc(CNC(=O)c2c(=O)c3ccc(N4CCCN(C)CC4)nc3n3c2sc2ccccc23)cn1, the IC50 (second compound 0.0316 µM) was 0.147 µM, the IC50 (second compound 0.1 µM) was 0.157 µM and the IC50 (second compound 0.316 µM) was < 0.0316 µM. The IC50 (second compound 1 µM) was > 10 µM, the IC50 (second compound 3.16 µM) was > 10 µM and the IC50 (second compound 10 µM) was < 0.0316 µM. The viability, T/C [1] was 80.7%, the viability, T/C [2] was 54% and the viability, T/C [3] was 37.4%. For the same molecule, the viability, T/C [4] was 33.7%, the viability, T/C [5] was 43.5% and the viability, T/C [6] was 53.1%. It also gave a viability, T/C [7] of 65.9%, a viability, T/C [8] of 53.8% and a viability, T/C [9] of 48.4%. It also gave a viability, T/C [10] of 29.8%, a viability, T/C [11] of 51.7% and a viability, T/C [12] of 55.2%. The viability, T/C [13] was 52.7%, the viability, T/C [14] was 39% and the viability, T/C [15] was 34.8%. For the same molecule, the viability, T/C [16] was 37.6%, the viability, T/C [17] was 48.5% and the viability, T/C [18] was 45%. It also gave a viability, T/C [19] of 55.3%, a viability, T/C [20] of 58.5% and a viability, T/C [21] of 67.5%. For the same molecule, the viability, T/C [22] was 57.5%, the viability, T/C [23] was 58.2% and the viability, T/C [24] was 51%. It also gave a viability, T/C [25] of 63.1%, a viability, T/C [26] of 63.7% and a viability, T/C [27] of 48.5%. For the same molecule, the viability, T/C [28] was 67.5%, the viability, T/C [29] was 57.8% and the viability, T/C [30] was 48%. The viability, T/C [31] was 43.1%, the viability, T/C [32] was 52% and the viability, T/C [33] was 66.7%. For the same molecule, the viability, T/C [34] was 54.9%, the viability, T/C [35] was 39.8% and the viability, T/C [36] was 63.3%.
`COc1ccc([C@@H](O)c2cc(-c3ncnc4cc(N5CCOCC5)ccc34)c(F)cc2Cl)nn1` + Cc1[nH]c2ccc(F)cc2c1-c1nc2c3cccnc3c3ncccc3c2[nH]1 was tested, and the IC50 (second compound 0.0316 µM) was > 10 µM, the IC50 (second compound 0.1 µM) was > 10 µM and the IC50 (second compound 0.316 µM) was > 10 µM. For the same molecule, the IC50 (second compound 1 µM) was 7.63 µM, the IC50 (second compound 3.16 µM) was > 10 µM and the IC50 (second compound 10 µM) was 8.49 µM. For the same molecule, the viability, T/C [1] was 90%, the viability, T/C [2] was 98.5% and the viability, T/C [3] was 93.9%. It also gave a viability, T/C [4] of 80.4%, a viability, T/C [5] of 80.5% and a viability, T/C [6] of 60%. The viability, T/C [7] was 110%, the viability, T/C [8] was 86.2% and the viability, T/C [9] was 92.3%. The viability, T/C [10] was 60.7%, the viability, T/C [11] was 106% and the viability, T/C [12] was 48.8%. It also gave a viability, T/C [13] of 86.8%, a viability, T/C [14] of 98.9% and a viability, T/C [15] of 100%. For the same molecule, the viability, T/C [16] was 81%, the viability, T/C [17] was 98.9% and the viability, T/C [18] was 67.8%. For the same molecule, the viability, T/C [19] was 74.3%, the viability, T/C [20] was 81.4% and the viability, T/C [21] was 95.4%. For the same molecule, the viability, T/C [22] was 72%, the viability, T/C [23] was 86.6% and the viability, T/C [24] was 40.1%. It also gave a viability, T/C [25] of 72.4%, a viability, T/C [26] of 71.9% and a viability, T/C [27] of 51.2%. The viability, T/C [28] was 92.2%, the viability, T/C [29] was 95.9% and the viability, T/C [30] was 54.7%. It also gave a viability, T/C [31] of 66%, a viability, T/C [32] of 88.5% and a viability, T/C [33] of 73.1%. The viability, T/C [34] was 73.1%, the viability, T/C [35] was 80.4% and the viability, T/C [36] was 45.7%.
